Test results: patent US10166216B2 (Rigel Pharmaceuticals, Inc., priority 2006, dated 2019)
pIC50: −log10 of the molar value.

These compounds were tested against Axl (Homo sapiens (Human), UniProt P30530) (assay: Phospho-Akt in-cell Western assay (Axl-antibody cross-linking stimulation)). Conditions: inhibition of Axl activity, Hela cells, phospho-Akt readout; Table 1, formula (Ia1).
Format: cell-based
Method: The working solution: dilute the stock 1:20 with PBS immediately before use. • 10% SDS: working solution: 5% SDS (sodium dodecylsulfate), diluted in PBS Methods: Day 1:
A 96 well TC (tissue culture treated) plate was coated with 10 μg/mL poly-L-Lysine at 37° C. for 30 min, washed twice with PBS, and air-dried for 5 minutes before cells were added. Hela cells were seeded at 10,000 cells/well and the cells were starved in 100 μL starvation medium containing Axl/Fc for 24 hrs.
The cells were pre-treated with test compounds by adding 100 μL of 2× test compound to the starvation medium on the cells. The cells were incubated at 37° C. for 1 hr before stimulation.
The resulting mix was warmed to 37° C. 50 μL of 5× Axl 1st/2nd of antibody cluster was added to the cells and the cells were incubated at 37° C. for 5 min.
After 5 minutes stimulation, the plate was flicked to remove medium and the plate was tapped onto paper towels. Formaldehyde (4.0% in PBS, 100 μL) was added to fix the cells and the cells were incubated at ambient temperature for 20 min without shaking.
The cells were washed with a plate washer buffer to remove the formaldehyde solution. The plate was flicked to removed excess wash buffer and tapped onto paper towels. Quenching buffer (100 μL) was added to each well and the cells were incubated at ambient temperature for 20 minutes without shaking.
The cells were washed with a plate washer buffer to remove the quenching buffer. Blocking buffer (100 μL) was added and the cells were incubated at ambient temperature for at least an hour with gentle shaking.
The cells were washed with a plate washer buffer and diluted primary antibody (50 μL) was added to each well (blocking buffer was added to the negative control wells instead). The plates were incubated overnight at 4° C. with gentle shaking.
The wash buffer was removed, diluted secondary antibody (100 μL) was added, and the cells were incubated at ambient temperature for 1 hour with gentle shaking. During the incubation, the chemiluminescent reagent was brought to ambient temperature.
The secondary antibody was removed by washing the cells 1× with wash buffer, 1× with PBS by plate washer. The PBS was removed from the plate and the chemiluminescent reagent (80 μL: 40 μL A and 40 μL B) was added to each well at ambient temperature.
The resulting chemiluminescence was read with a Luminomitor within 10 minutes to minimize changes in signal intensity. […] The plate was tapped onto paper towels to remove excess liquid from wells and air-dried at ambient temperature for 5 minutes.
Crystal Violet working solution (60 μL) was added to each well and the cells were incubated at ambient temperature for 30 min. The crystal violet solution was removed, and the wells were rinsed with PBS, then washed 3× with PBS (200 μL) for 5 minutes each.
5% SDS solution (70 μL) was added to each well and the cells were incubated on a shaker for 30 min at ambient temperature.
This relative cell number was then used to normalize each luminescence reading. […]

Axl, sequence (P30530 26-894): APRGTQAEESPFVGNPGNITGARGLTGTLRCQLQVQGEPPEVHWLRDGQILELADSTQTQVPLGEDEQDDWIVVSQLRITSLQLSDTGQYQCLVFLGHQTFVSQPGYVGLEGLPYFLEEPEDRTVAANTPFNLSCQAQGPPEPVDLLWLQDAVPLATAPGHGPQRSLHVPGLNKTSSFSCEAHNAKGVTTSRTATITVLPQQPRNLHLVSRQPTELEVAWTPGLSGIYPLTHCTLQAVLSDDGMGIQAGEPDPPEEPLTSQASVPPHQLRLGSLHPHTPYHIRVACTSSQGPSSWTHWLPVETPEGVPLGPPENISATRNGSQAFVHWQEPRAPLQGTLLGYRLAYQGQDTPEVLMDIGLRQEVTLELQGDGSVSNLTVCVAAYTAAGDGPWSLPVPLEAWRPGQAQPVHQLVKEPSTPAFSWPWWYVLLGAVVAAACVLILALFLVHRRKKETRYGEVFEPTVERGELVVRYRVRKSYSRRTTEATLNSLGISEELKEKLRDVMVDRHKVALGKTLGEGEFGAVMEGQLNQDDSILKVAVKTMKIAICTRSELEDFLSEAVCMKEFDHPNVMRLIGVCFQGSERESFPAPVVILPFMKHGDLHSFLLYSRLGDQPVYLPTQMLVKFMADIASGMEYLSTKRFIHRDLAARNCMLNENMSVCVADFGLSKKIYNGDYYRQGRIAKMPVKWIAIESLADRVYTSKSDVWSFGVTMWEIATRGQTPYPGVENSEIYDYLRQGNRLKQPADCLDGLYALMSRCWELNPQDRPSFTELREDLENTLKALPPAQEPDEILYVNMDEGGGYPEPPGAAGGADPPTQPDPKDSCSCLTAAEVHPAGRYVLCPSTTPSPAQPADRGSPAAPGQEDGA

Compared with `Nc1nc(Nc2ccc(OCCN3CCCC3)cc2)nn1-c1ccc(Br)cn1` [Compound 32, 1-(5-bromopyridin-2-yl)-N^3-(4-(2-(pyrrolidin-1-yl)ethoxy)phenyl)-1H-1,2,4-triazole-3,5-diamine], `CNc1cccc(-n2nc(Nc3ccc(OCCN4CCCCC4)cc3)nc2N)n1` [Compound 35, 1-(6-(methylamino)pyridin-2-yl)-N^3-(4-(2-(piperidin-1-yl)ethoxy)phenyl)-1H-1,2,4-triazole-3,5-diamine] is higher in pIC50: less than 4.70 for the first, 5.00 to 6.00 for the second.

First: COC(=O)C1CCCN1CCOc1ccc(Nc2nc(N)n(-c3cnc4ccccc4n3)n2)cc1 (stereo not drawn) [Compound 33, methyl 1-(2-(4-(5-amino-1-(quinoxalin-2-yl)-1H-1,2,4-triazol-3-ylamino)phenoxy)ethyl)-pyrrolidine-2-carboxylate]
Second: CC1CCC(C)N1CCOc1ccc(Nc2nc(N)n(-c3cnc4ccccc4n3)n2)cc1 (stereo not drawn) [Compound 46, N^3-(4-(2-(2,5-dimethylpyrrolidin-1-yl)ethoxy)phenyl)-1-(quinoxalin-2-yl)-1H-1,2,4-triazole-3,5-diamine]
The pIC50 of the first is lower: 5.00 to 6.00 for the first, greater than 6.00 for the second.

Going from `Nc1nc(Nc2ccc(OCCN3CCCC3)cc2)nn1-c1ccccc1F` [Compound 34, 1-(2-fluorophenyl)-N^3-(4-(2-(pyrrolidin-1-yl)ethoxy)phenyl)-1H-1,2,4-triazole-3,5-diamine] to `Nc1nc(Nc2ccc(OCCN3CCCC3)cc2)nn1-c1ccc2ccccc2n1` [Compound 41, N^3-(4-(2-(pyrrolidin-1-yl)ethoxy)phenyl)-1-(quinolin-2-yl)-1H-1,2,4-triazole-3,5-diamine], the pIC50 rises from less than 4.70 to greater than 6.00. The second is the more potent here.

First: CN(C)c1cccc(-n2nc(Nc3ccc(OCCN4CCCCC4)cc3)nc2N)n1 [Compound 36, 1-(6-(dimethylamino)pyridin-2-yl)-N^3-(4-(2-(piperidin-1-yl)ethoxy)phenyl)-1H-1,2,4-triazole-3,5-diamine]
Second: Nc1nc(Nc2ccc(OCCN3CCCC3)cc2)nn1-c1ncccn1 [Compound 47, 1-(pyrimidin-2-yl)-N^3-(4-(2-(pyrrolidin-1-yl)ethoxy)phenyl)-1H-1,2,4-triazole-3,5-diamine]
The pIC50 of the first is higher: 4.70 to 5.00 for the first, less than 4.70 for the second.

`Nc1nc(Nc2ccc(OCCN3CCCC3)cc2)nn1-c1nc(Cl)nc2ccccc12` [Compound 37, 1-(2-chloroquinazolin-4-yl)-N^3-(4-(2-(pyrrolidin-1-yl)ethoxy)phenyl)-1H-1,2,4-triazole-3,5-diamine] and `Nc1nc(Nc2ccc(OCCN3CCCC3)cc2)nn1-c1nc(C(F)(F)F)nc2ccccc12` [Compound 53, N^3-(4-(2-(pyrrolidin-1-yl)ethoxy)phenyl)-1-(2-(trifluoromethyl)quinazolin-4-yl)-1H-1,2,4-triazole-3,5-diamine] cannot be ordered by pIC50: greater than 6.00 for the first, greater than 6.00 for the second.

Compared with `Nc1nc(Nc2ccc(OCCN3CCCC3)cc2)nn1-c1nc(N2CCOCC2)nc2ccccc12` [Compound 38, 1-(2-morpholinoquinazolin-4-yl)-N^3-(4-(2-(pyrrolidin-1-yl)ethoxy)phenyl)-1H-1,2,4-triazole-3,5-diamine], `Nc1nc(Nc2ccc(OCCN3CCCC3)cc2)nn1-c1nccc2ccccc12` [Compound 50, 1-(isoquinolin-1-yl)-N^3-(4-(2-(pyrrolidin-1-yl)ethoxy)phenyl)-1H-1,2,4-triazole-3,5-diamine] is higher in pIC50: 5.00 to 6.00 for the first, greater than 6.00 for the second.

`Nc1nc(Nc2ccc(OCCN3CCCC3)c(Cl)c2)nn1-c1nc2ccccc2s1` [Compound 39, 1-(benzo[d]thiazol-2-yl)-N^3-(3-chloro-4-(2-(pyrrolidin-1-yl)ethoxy)phenyl)-1H-1,2,4-triazole-3,5-diamine] and `Nc1nc(Nc2ccc(OCCN3CCCC3)c(F)c2)nn1-c1nc2ccccc2s1` [Compound 56, 1-(benzo[d]thiazol-2-yl)-N^3-(3-fluoro-4-(2-(pyrrolidin-1-yl)ethoxy)phenyl)-1H-1,2,4-triazole-3,5-diamine] cannot be ordered by pIC50: greater than 6.00 for the first, greater than 6.00 for the second.

`Cn1c(-n2nc(Nc3ccc(OCCN4CCCC4)c(Cl)c3)nc2N)nc2ccccc21` [Compound 40, N^3-(3-chloro-4-(2-(pyrrolidin-1-yl)ethoxy)phenyl)-1-(1-methyl-1H-benzo[d]imidazol-2-yl)-1H-1,2,4-triazole-3,5-diamine] and `Nc1nc(Nc2ccc(OCCN3CCCC3)c(Cl)c2)nn1-c1nccc2ccccc12` [Compound 62, N^3-(3-chloro-4-(2-(pyrrolidin-1-yl)ethoxy)phenyl)-1-(isoquinolin-1-yl)-1H-1,2,4-triazole-3,5-diamine] cannot be ordered by pIC50: greater than 6.00 for the first, greater than 6.00 for the second.

Going from `Cc1cc(O)nc(-n2nc(Nc3ccc(OCCN4CCCC4)cc3)nc2N)n1` [Compound 42, 2-(5-amino-3-(4-(2-(pyrrolidin-1-yl)ethoxy)phenylamino)-1H-1,2,4-triazol-1-yl)-6-methylpyrimidin-4-ol] to `Nc1nc(Nc2ccc(OCCN3CCCC3)cc2)nn1-c1ncnc2sccc12` [Compound 51, N^3-(4-(2-(pyrrolidin-1-yl)ethoxy)phenyl)-1-(thieno[2,3-d]pyrimidin-4-yl)-1H-1,2,4-triazole-3,5-diamine], the pIC50 rises from less than 4.70 to greater than 6.00. The second is the more potent here.

`COc1cc2nc(Cl)nc(-n3nc(Nc4ccc(OCCN5CCCC5)cc4)nc3N)c2cc1OC` [Compound 44, 1-(2-chloro-6,7-dimethoxyquinazolin-4-yl)-N^3-(4-(2-(pyrrolidin-1-yl)ethoxy)phenyl)-1H-1,2,4-triazole-3,5-diamine] and `COc1cc2ncnc(-n3nc(Nc4ccc(OCCN5CCCC5)cc4)nc3N)c2cc1OC` [Compound 45, 1-(6,7-dimethoxyquinazolin-4-yl)-N^3-(4-(2-(pyrrolidin-1-yl)ethoxy)phenyl)-1H-1,2,4-triazole-3,5-diamine] cannot be ordered by pIC50: greater than 6.00 for the first, greater than 6.00 for the second.

`Nc1nc(Nc2ccc(OCCN3CCCC3)cc2)nn1-c1nc(Cl)nc2c1CCC2` [Compound 49, 1-(2-chloro-6,7-dihydro-5H-cyclopenta[d]pyrimidin-4-yl)-N^3-(4-(2-(pyrrolidin-1-yl)ethoxy)phenyl)-1H-1,2,4-triazole-3,5-diamine] and `Nc1nc(Nc2ccc(OCCN3CCCC3)cc2)nn1-c1ncnc2sc3c(c12)CCC3` [Compound 66, 1-(6,7-dihydro-5H-cyclopenta[4,5]thieno[2,3-d]pyrimidin-4-yl)-N^3-(4-(2-(pyrrolidin-1-yl)ethoxy)phenyl)-1H-1,2,4-triazole-3,5-diamine] cannot be ordered by pIC50: greater than 6.00 for the first, greater than 6.00 for the second.

`Nc1nc(Nc2ccc(OCCN3CCCC3)cc2)nn1-c1ncnc2cc(-c3ccccc3)sc12` [Compound 52, 1-(6-phenylthieno[3,2-d]pyrimidin-4-yl)-N^3-(4-(2-(pyrrolidin-1-yl)ethoxy)phenyl)-1H-1,2,4-triaozle-3,5-diamine] and `Nc1nc(Nc2ccc(OCCN3CCCC3)cc2)nn1-c1ncnc2ccsc12` [Compound 54, N^3-(4-(2-(pyrrolidin-1-yl)ethoxy)phenyl)-1-(thieno[3,2-d]pyrimidin-4-yl)-1H-1,2,4-triazole-3,5-diamine] cannot be ordered by pIC50: greater than 6.00 for the first, greater than 6.00 for the second.

`Nc1nc(Nc2ccc(OCCN3CCCC3)c(F)c2)nn1-c1cnc2ccccc2n1` [Compound 55, N^3-(3-fluoro-4-(2-(pyrrolidin-1-yl)ethoxy)phenyl)-1-(quinoxalin-2-yl)-1H-1,2,4-triazole-3,5-diamine] and `Nc1nc(Nc2ccc(OCCN3CCCC3)c(F)c2)nn1-c1ccccn1` [Compound 57, N^3-(3-fluoro-4-(2-(pyrrolidin-1-yl)ethoxy)phenyl)-1-(pyridin-2-yl)-1H-1,2,4-triazole-3,5-diamine] cannot be ordered by pIC50: greater than 6.00 for the first, greater than 6.00 for the second.

`Nc1nc(Nc2ccc(OCCN3CCCC3)c(F)c2)nn1-c1nccc2ccccc12` [Compound 58, N^3-(3-fluroo-4-(2-(pyrrolidin-1-yl)ethoxy)phenyl)-1-(isoquinolin-1-yl)-1H-1,2,4-triaozle-3,5-diamine] and `Nc1nc(Nc2ccc(OCCN3CCCC3)cc2)nn1-c1nccc2ccsc12` [Compound 64, N^3-(4-(2-(pyrrolidin-1-yl)ethoxy)phenyl)-1-(thieno[2,3-c]pyridin-7-yl)-1H-1,2,4-triazole-3,5-diamine] cannot be ordered by pIC50: greater than 6.00 for the first, greater than 6.00 for the second.

`Nc1nc(Nc2ccc(OCCN3CCCC3)cc2)nn1-c1ncnc2sc3c(c12)CCCC3` [Compound 61, 1-(5,6,7,8-tetrahydrobenzo[4.,5]thieno[2,3-d]pyrimidin-4-yl)-N^3-(4-(2-(pyrrolidin-1-yl)ethoxy)phenyl)-1H-1,2,4-triazole-3,5-diamine] and `Nc1nc(Nc2ccc(OCCN3CCCC3)c(Cl)c2)nn1-c1ncnc2sc3c(c12)CCCC3` [Compound 67, N^3-(3-chloro-4-(2-(pyrrolidin-1-yl)ethoxy)phenyl)-1-(5,6,7,8-tetrahydrobenzo[4,5]thieno[2,3-d]pyrimidin-4-yl)-1H-1,2,4-triazole-3,5-diamine] cannot be ordered by pIC50: greater than 6.00 for the first, greater than 6.00 for the second.
